# Measured values published in patent publication US20240010726A1, “LFA-1 SIGNALLING MEDIATOR FOR USE IN CANCER THERAPY” (Universität Basel, priority 2020, published 2024).
# Experiments:
# [1] = test system: murine WT and LFA-1^−/− CTLs; experiment: Glycolytic switch of murine WT and LFA-1−/− CTLs; type: cell-based; conditions: anti-CD3/28 Ab; 0 mM vs 1.2 mM Mg^2+
# Protocol: (§1) FIG. 3: Magnesium regulates LFA-1 mediated T cell activation and cytotoxicity as well BiTE- and CAR T-cell functionality. (a) Glycolytic switch of murine WT and LFA-1^-/- CTLs upon injection of anti-CD3/28 Ab in medium containing 1.2 mM Mg^2+ and 0 mM Mg^2+, presented as quantification of summarized data with n=4 mice. (b) Calcium flux in WT and LFA-1^-/- Jurkat T cells stimulated with anti-CD3 Ab in 1.2 mM and 0 mM Mg^2+ medium, respectively. Cells were loaded with Fluo4, and signal intensity as recorded by plate reader, was normalized to unstimulated baseline values. […] Quantified results of n=3 mice with 3 technical replicates each. […] The effector to target cell ratio was 3:1. Results are quantified of n=3 mice with 3 technical replicates each. (e) Representative CD11a (LFA-1) surface expression on human naïve and EM CD8 T cells, PHA T cell blasts and REP T cells, assessed by flow cytometry. […] The effector to target cell ratio was 1:1. Data is presented as quantified results of n=5 healthy donors (f, g, h), n=3 healthy donors with 2 technical replicates each or n=1 healthy donor with 4 technical replicates (j). […] Data is presented as quantified results of n=1 healthy donor with 4 technical replicates. […] (p) Abundance of IFNγ in cell culture supernatants corresponding to the conditions depicted in (o) at 24 hours was determined by ELISA (n=8, 3 independent experiments). […]
# PSMA+ PC3-PIP cell line = experiment: Cytotoxicity assay with anti-PSMA CAR T cells (IncuCyte); type: cell-based, human; conditions: time-lapse killing; E:T 2:1; 0 mM vs 0.6 mM Mg^2+
# Protocol: as §1
smiles,measurement,setting,value
"[Mg+2] [Mg^2+, Magnesium]",Glycolytic switch of LFA-1^−/− CTLs,[1],independent from extracellular Mg^2+ concentrations
same,Glycolytic switch of WT CTLs,[1],reduced glycolytic switching
same,Cytolytic activity of CAR T cells against tumor target cells,PSMA+ PC3-PIP cell line,impaired the cytolytic activity
